compound: Cc1nc(C(=O)NCC(=O)O)c(O)c2ccc(Oc3ccccc3)cc12 [FG-4592]; experiment: relative viability (nuclei count vs DMSO), 5 days (fraction); higher = more cells survive; details: 8 µM
Method in brief: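 Lung cancer cell lines in 1536-well plates were kept overnight at 37 °C, then pinned with five library-drug doses (not always all listed) spaced by √10 on vehicle-anchored plates. After 5 days without medium change, cells were fixed, permeabilised and Hoechst-stained in one step, imaged at 4×, and nuclei were counted with MetaXpress. Viability is treated-well nuclei divided by vehicle-well nuclei, taken as the median over plates. Plates passed only with control CV below 25% and at least one doubling.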

Which relative viability does the source give for NCI-H650 here?
The relative viability was 0.891.

PC-3 [JPC-3] was tested. Which relative viability did it give?
Its relative viability is 1.02.

compound: CC1=CC(=C(N1C2=CC=C(C=C2)Cl)C)C(=O)CN3CCCCC3 [IU1-47] + CS(=O)(=O)N1CCN(Cc2cc3nc(-c4cccc5[nH]ncc45)nc(N4CCOCC4)c3s2)CC1 [Pictilisib] (partner 1 µM); experiment: relative viability (nuclei count vs DMSO), 5 days (fraction); higher = more cells survive; details: first compound 0.08 µM
Method in brief: (§1)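 Medians of duplicate plates are given as relative viability. That measure is the nuclei count in treated wells divided by the count in vehicle wells. Counts were taken on 4× images of lung cancer cell lines in 1536-well plates, 5 days after pin-tool dosing the day after seeding with one drug alone or a fixed anchor-drug dose plus five library-drug doses (not always all listed) in √10 steps.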

How did the relative viability turn out when NCI-H1915 was run?
The relative viability was 0.854.

How did the relative viability turn out when HCC-827 was run?
Its relative viability is 1.27.

For LXF-289, which relative viability is on record?
Its relative viability is 0.8.

How did the relative viability turn out when NCI-H23 was run?
The relative viability was 0.43.

Which relative viability does the source give for NCI-H1299 here?
The relative viability was 0.893.

How did the relative viability turn out when NCI-H647 was run?
Its relative viability is 0.467.

How did the relative viability turn out when CAL-12T was run?
Its relative viability is 0.448.

NCI-H1651 was tested. Which relative viability did it give?
Its relative viability is 0.526.

EPLC-272H was tested. Which relative viability did it give?
The relative viability was 0.301.

Which relative viability does the source give for NCI-H2228 here?
Its relative viability is 0.497.

NCI-H1792 was tested. Which relative viability did it give?
Its relative viability is 0.26.

NCI-H1355 was tested. Which relative viability did it give?
Its relative viability is 0.489.

NCI-H3122 was tested. Which relative viability did it give?
The relative viability was 0.556.

With NCI-H1437 as the cell line, how does the relative viability read?
Its relative viability is 0.403.

How did the relative viability turn out when NCI-H1755 was run?
The relative viability was 0.433.

How did the relative viability turn out when NCI-H2023 was run?
Its relative viability is 0.22.

Which relative viability does the source give for HCC-15 here?
The relative viability was 0.8.

Which relative viability does the source give for NCI-H1793 here?
Its relative viability is 0.284.

For PC-14, which relative viability is on record?
The relative viability was 0.896.

EKVX was tested. Which relative viability did it give?
Its relative viability is 0.555.

Which relative viability does the source give for LC-2-ad here?
The relative viability was 0.428.

For NCI-H1563, which relative viability is on record?
Its relative viability is 0.69.

Which relative viability does the source give for NCI-H1944 here?
The relative viability was 0.361.

Which relative viability does the source give for NCI-H1975 here?
The relative viability was 0.274.

For RERF-LC-KJ, which relative viability is on record?
The relative viability was 0.538.

How did the relative viability turn out when ABC-1 was run?
Its relative viability is 0.766.

Which relative viability does the source give for NCI-H358 here?
The relative viability was 0.287.

Which relative viability does the source give for NCI-H650 here?
Its relative viability is 0.882.

For PC-3 [JPC-3], which relative viability is on record?
The relative viability was 0.756.

same assay, conditions: first compound 0.253 µM

Which relative viability does the source give for NCI-H1915 here?
Its relative viability is 0.915.

For HCC-827, which relative viability is on record?
Its relative viability is 1.1.

How did the relative viability turn out when LXF-289 was run?
Its relative viability is 0.754.

How did the relative viability turn out when NCI-H23 was run?
The relative viability was 0.492.

NCI-H1299 was tested. Which relative viability did it give?
Its relative viability is 0.881.

With NCI-H647 as the cell line, how does the relative viability read?
Its relative viability is 0.52.

For CAL-12T, which relative viability is on record?
Its relative viability is 0.392.

For NCI-H1651, which relative viability is on record?
Its relative viability is 0.575.

How did the relative viability turn out when EPLC-272H was run?
The relative viability was 0.318.

With NCI-H2228 as the cell line, how does the relative viability read?
The relative viability was 0.506.

NCI-H1792 was tested. Which relative viability did it give?
The relative viability was 0.318.

With NCI-H1355 as the cell line, how does the relative viability read?
The relative viability was 0.457.

With NCI-H3122 as the cell line, how does the relative viability read?
Its relative viability is 0.615.

Which relative viability does the source give for NCI-H1437 here?
Its relative viability is 0.428.

For NCI-H1755, which relative viability is on record?
The relative viability was 0.419.

Which relative viability does the source give for NCI-H2023 here?
Its relative viability is 0.214.

How did the relative viability turn out when HCC-15 was run?
Its relative viability is 0.703.

For NCI-H1793, which relative viability is on record?
Its relative viability is 0.293.

For PC-14, which relative viability is on record?
Its relative viability is 0.706.

EKVX was tested. Which relative viability did it give?
Its relative viability is 0.549.

Which relative viability does the source give for LC-2-ad here?
Its relative viability is 0.509.

For NCI-H1563, which relative viability is on record?
The relative viability was 0.672.

How did the relative viability turn out when NCI-H1944 was run?
The relative viability was 0.371.

How did the relative viability turn out when NCI-H1975 was run?
The relative viability was 0.293.

With RERF-LC-KJ as the cell line, how does the relative viability read?
The relative viability was 0.659.

ABC-1 was tested. Which relative viability did it give?
Its relative viability is 0.711.

How did the relative viability turn out when NCI-H358 was run?
Its relative viability is 0.323.

Which relative viability does the source give for NCI-H650 here?
Its relative viability is 1.

How did the relative viability turn out when PC-3 [JPC-3] was run?
Its relative viability is 0.745.

same assay, conditions: first compound 0.8 µM

NCI-H1915 was tested. Which relative viability did it give?
The relative viability was 0.977.

With HCC-827 as the cell line, how does the relative viability read?
The relative viability was 1.14.

For LXF-289, which relative viability is on record?
Its relative viability is 0.772.

For NCI-H23, which relative viability is on record?
Its relative viability is 0.44.

Which relative viability does the source give for NCI-H1299 here?
Its relative viability is 0.749.

How did the relative viability turn out when NCI-H647 was run?
The relative viability was 0.453.

For CAL-12T, which relative viability is on record?
Its relative viability is 0.537.

With NCI-H1651 as the cell line, how does the relative viability read?
The relative viability was 0.573.

EPLC-272H was tested. Which relative viability did it give?
Its relative viability is 0.313.

Which relative viability does the source give for NCI-H2228 here?
The relative viability was 0.28.

With NCI-H1792 as the cell line, how does the relative viability read?
The relative viability was 0.253.

For NCI-H1355, which relative viability is on record?
The relative viability was 0.363.

With NCI-H3122 as the cell line, how does the relative viability read?
Its relative viability is 0.666.

How did the relative viability turn out when NCI-H1437 was run?
Its relative viability is 0.423.

Which relative viability does the source give for NCI-H1755 here?
The relative viability was 0.503.

Which relative viability does the source give for NCI-H2023 here?
Its relative viability is 0.274.

HCC-15 was tested. Which relative viability did it give?
Its relative viability is 0.76.

Which relative viability does the source give for NCI-H1793 here?
The relative viability was 0.363.

PC-14 was tested. Which relative viability did it give?
The relative viability was 0.673.

With EKVX as the cell line, how does the relative viability read?
The relative viability was 0.459.

LC-2-ad was tested. Which relative viability did it give?
The relative viability was 0.427.

How did the relative viability turn out when NCI-H1563 was run?
The relative viability was 0.663.

With NCI-H1944 as the cell line, how does the relative viability read?
Its relative viability is 0.335.

For NCI-H1975, which relative viability is on record?
Its relative viability is 0.305.

For RERF-LC-KJ, which relative viability is on record?
The relative viability was 0.41.

ABC-1 was tested. Which relative viability did it give?
Its relative viability is 0.895.

How did the relative viability turn out when NCI-H358 was run?
Its relative viability is 0.352.

With NCI-H650 as the cell line, how does the relative viability read?
Its relative viability is 0.932.

For PC-3 [JPC-3], which relative viability is on record?
The relative viability was 0.852.

same assay, conditions: first compound 2.53 µM

With HCC-827 as the cell line, how does the relative viability read?
The relative viability was 0.957.

With LXF-289 as the cell line, how does the relative viability read?
Its relative viability is 0.822.

Which relative viability does the source give for NCI-H23 here?
Its relative viability is 0.543.

For NCI-H1299, which relative viability is on record?
Its relative viability is 1.05.

CAL-12T was tested. Which relative viability did it give?
The relative viability was 0.413.

With NCI-H2228 as the cell line, how does the relative viability read?
Its relative viability is 0.28.

With NCI-H1792 as the cell line, how does the relative viability read?
Its relative viability is 0.165.

NCI-H1355 was tested. Which relative viability did it give?
The relative viability was 0.251.

With NCI-H3122 as the cell line, how does the relative viability read?
Its relative viability is 0.625.

For NCI-H1437, which relative viability is on record?
The relative viability was 0.413.

NCI-H1755 was tested. Which relative viability did it give?
Its relative viability is 0.334.

With NCI-H2023 as the cell line, how does the relative viability read?
Its relative viability is 0.178.

HCC-15 was tested. Which relative viability did it give?
Its relative viability is 0.427.

PC-14 was tested. Which relative viability did it give?
The relative viability was 0.82.

For EKVX, which relative viability is on record?
The relative viability was 0.487.

For LC-2-ad, which relative viability is on record?
Its relative viability is 0.423.

For NCI-H1563, which relative viability is on record?
The relative viability was 0.627.

With NCI-H1975 as the cell line, how does the relative viability read?
Its relative viability is 0.281.

RERF-LC-KJ was tested. Which relative viability did it give?
The relative viability was 0.489.

NCI-H650 was tested. Which relative viability did it give?
The relative viability was 0.968.

same assay, conditions: first compound 8 µM

For NCI-H1915, which relative viability is on record?
The relative viability was 0.985.

HCC-827 was tested. Which relative viability did it give?
Its relative viability is 1.1.

For LXF-289, which relative viability is on record?
The relative viability was 0.688.

NCI-H23 was tested. Which relative viability did it give?
Its relative viability is 0.435.

How did the relative viability turn out when NCI-H1299 was run?
The relative viability was 0.911.

Which relative viability does the source give for NCI-H647 here?
Its relative viability is 0.359.

For CAL-12T, which relative viability is on record?
Its relative viability is 0.396.

NCI-H1651 was tested. Which relative viability did it give?
The relative viability was 0.468.

With EPLC-272H as the cell line, how does the relative viability read?
Its relative viability is 0.185.

For NCI-H2228, which relative viability is on record?
The relative viability was 0.229.

Which relative viability does the source give for NCI-H1792 here?
Its relative viability is 0.286.

How did the relative viability turn out when NCI-H1355 was run?
The relative viability was 0.415.

Which relative viability does the source give for NCI-H3122 here?
Its relative viability is 0.581.

NCI-H1437 was tested. Which relative viability did it give?
Its relative viability is 0.35.

NCI-H1755 was tested. Which relative viability did it give?
The relative viability was 0.318.

For NCI-H2023, which relative viability is on record?
Its relative viability is 0.182.

HCC-15 was tested. Which relative viability did it give?
Its relative viability is 0.65.

Which relative viability does the source give for NCI-H1793 here?
Its relative viability is 0.262.

PC-14 was tested. Which relative viability did it give?
The relative viability was 0.437.

EKVX was tested. Which relative viability did it give?
Its relative viability is 0.463.

For LC-2-ad, which relative viability is on record?
Its relative viability is 0.45.

For NCI-H1563, which relative viability is on record?
The relative viability was 0.732.

NCI-H1944 was tested. Which relative viability did it give?
The relative viability was 0.356.

For NCI-H1975, which relative viability is on record?
The relative viability was 0.256.

RERF-LC-KJ was tested. Which relative viability did it give?
Its relative viability is 0.595.

How did the relative viability turn out when ABC-1 was run?
Its relative viability is 0.671.

For NCI-H358, which relative viability is on record?
Its relative viability is 0.366.

Which relative viability does the source give for NCI-H650 here?
Its relative viability is 0.832.

How did the relative viability turn out when PC-3 [JPC-3] was run?
Its relative viability is 0.734.

compound: Cc1nc(C(=O)NCC(=O)O)c(O)c2ccc(Oc3ccccc3)cc12 [FG-4592] + CS(=O)(=O)CCNCc1ccc(-c2ccc3ncnc(Nc4ccc(OCc5cccc(F)c5)c(Cl)c4)c3c2)o1 [Lapatinib] (partner 2 µM); experiment: as above; details: first compound 0.08 µM
Method in brief: as §1

With NCI-H1915 as the cell line, how does the relative viability read?
The relative viability was 0.956.

With HCC-827 as the cell line, how does the relative viability read?
The relative viability was 0.192.
